In ChEMBL document CHEMBL1157977, “Musidunin and musiduol, insect antifeedants from Croton jatrophoides” (2006) one finds Activity data, which are given here for 2 compounds.

Holding throughout (type): functional
The subject of assay [1] is Pectinophora gossypiella. In words: Antifeedant activity against Pectinophora gossypiella second-instar larvae assessed as drug level causing 95% protection of host plant by leaf disc assay relative to control.
The subject of assay [2] is Pectinophora gossypiella. Put plainly: Antifeedant activity against Pectinophora gossypiella second-instar larvae assessed as drug level causing 50% protection of host plant by leaf disc assay relative to control.
In assay [3] the test system is Spodoptera frugiperda. Put plainly: Antifeedant activity against Spodoptera frugiperda second-instar larvae assessed as drug level causing 50% protection of host plant by leaf disc assay relative to control.
Assay [4] has as its system Spodoptera frugiperda. In words: Antifeedant activity against Spodoptera frugiperda second-instar larvae assessed as drug level causing 95% protection of host plant by leaf disc assay relative to control.

In the case of `COC(=O)C[C@H]1C(C)(C)O[C@@]23OCC4=C5[C@H](O)C[C@@H](c6ccoc6)[C@]5(C)[C@@H](OC(C)=O)[C@H](OC(C)=O)[C@@H]4[C@@]12CCC3=O`, the Activity in the assay on Pectinophora gossypiella [1] amounted to 10 µg/mL; with Pectinophora gossypiella [2], 3 µg/mL.
On to `CC(=O)O[C@H]1[C@H](OC(C)=O)[C@]2(C)[C@@H](C(=O)C[C@H]2c2ccoc2)[C@]2(C)[C@H](O)C[C@H]3C(C)(C)O[C@]4(O)C(=O)CC[C@]34[C@@H]12`, for which the Activity in the assay on Spodoptera frugiperda [3] was 2 µg/mL; in the assay with Pectinophora gossypiella [1] it was 20 µg/mL; with Pectinophora gossypiella [2] it was 4 µg/mL; in the assay with Spodoptera frugiperda [4] it was 36 µg/mL.
